Reference: US20060025414A1, “Poly-heterocyclic compounds and their use as metabotropic glutamate receptor antagonists” (AstraZeneca AB, priority 2004, published 2006)

Target: T1, human mGluR5d (Homo sapiens, UniProt P41594)
T1 construct: expressed in transfected cells
Assay: FLIPR assay of [Ca2+]i mobilization (Group I receptor antagonist activity)
Assay type: cell-based
Conditions: cells expressing human mGluR5d; antagonist block of agonist challenge
Procedure: For FLIPR analysis, cells expressing human mGluR5d as described in WO97/05252 were seeded on collagen coated clear bottom 96-well plates with black sides and analysis of [Ca^2+]i mobilization was done 24 h after seeding.
FLIPR experiments were done using a laser setting of 0.800 W and a 0.4 second CCD camera shutter speed. Each FLIPR experiment was initiated with 160 μl of buffer present in each well of the cell plate. After each addition of the compound, the fluorescence signal was sampled 50 times at 1 second intervals followed by 3 samples at 5 second intervals. Responses were measured as the peak height of the response within the sample period. EC50 and IC50 determinations were made from data obtained from 8-point concentration response curves (CRC) performed in duplicate. Agonist CRC were generated by scaling all responses to the maximal response observed for the plate. […]
FLIPR experiments were done using a laser setting of 0.800 W and a 0.4 second CCD camera shutter speed with excitation and emission wavelengths of 488 nm and 562 nm, respectively. […] After each addition the fluorescence signal was sampled 50 times at 1 second intervals followed by 3 samples at 5 second intervals. Responses were measured as the peak height of the response within the sample period. […]

T1 sequence (P41594 21-942 isoform P41594-3 limits assumed): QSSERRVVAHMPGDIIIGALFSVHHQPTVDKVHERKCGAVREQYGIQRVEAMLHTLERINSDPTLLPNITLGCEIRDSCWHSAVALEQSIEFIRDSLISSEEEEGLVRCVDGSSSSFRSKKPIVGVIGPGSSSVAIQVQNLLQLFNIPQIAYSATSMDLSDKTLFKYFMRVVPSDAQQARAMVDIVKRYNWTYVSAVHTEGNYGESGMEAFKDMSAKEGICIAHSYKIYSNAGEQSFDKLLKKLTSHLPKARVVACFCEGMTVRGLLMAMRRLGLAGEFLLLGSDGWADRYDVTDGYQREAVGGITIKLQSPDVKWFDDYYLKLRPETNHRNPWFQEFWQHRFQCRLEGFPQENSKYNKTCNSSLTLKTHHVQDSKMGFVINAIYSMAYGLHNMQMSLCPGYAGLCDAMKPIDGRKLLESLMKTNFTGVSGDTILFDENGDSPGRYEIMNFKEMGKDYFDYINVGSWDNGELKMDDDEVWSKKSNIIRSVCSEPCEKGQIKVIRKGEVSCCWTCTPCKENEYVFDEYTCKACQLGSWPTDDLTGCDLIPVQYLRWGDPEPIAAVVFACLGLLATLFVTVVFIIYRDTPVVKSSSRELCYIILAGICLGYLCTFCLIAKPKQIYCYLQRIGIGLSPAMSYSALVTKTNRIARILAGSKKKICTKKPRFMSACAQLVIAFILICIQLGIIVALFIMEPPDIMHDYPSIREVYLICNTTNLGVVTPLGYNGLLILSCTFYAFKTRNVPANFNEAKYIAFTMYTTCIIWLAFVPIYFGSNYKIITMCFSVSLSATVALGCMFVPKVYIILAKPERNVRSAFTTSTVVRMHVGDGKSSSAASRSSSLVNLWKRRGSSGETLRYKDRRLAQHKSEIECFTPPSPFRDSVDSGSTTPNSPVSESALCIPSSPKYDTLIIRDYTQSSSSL

Structure (SMILES) | IC50 [nM]
Cn1c(-c2ccc(OC(F)F)cc2)nnc1N1CCOCC1c1nc(-c2cccc(Cl)c2)no1 (centres unmarked) [3-[3-(3-Chloro-phenyl)-[1,2,4]oxadiazol-5-yl]-4-[5-(4-difluoromethoxy-phenyl)-4-methyl-4H-[1,2,4]triazol-3-yl]-morpholine] | 199
Cn1c(-c2ccncc2)nnc1N1CCCCC1c1nnn(-c2cccc(Cl)c2)n1 (centres unmarked) [4-(5-{2-[2-(3-chlorophenyl)-2H-tetrazol-5-yl]piperidin-1-yl}-4-methyl-4H-1,2,4-triazol-3-yl)pyridine] | 40
